The values that follow come from patent US20110092476A1, “Bicycloheteroaryl compounds as P2X7 modulators and uses thereof” (Renovis, Inc., priority 2006, published 2011).

The assay deals with T1, P2X7 receptor (Homo sapiens, UniProt Q99572).
T1 construct: host or cells: THP-1 cells differentiated with LPS and IFN-γ
T1 sequence (Q99572 1-595): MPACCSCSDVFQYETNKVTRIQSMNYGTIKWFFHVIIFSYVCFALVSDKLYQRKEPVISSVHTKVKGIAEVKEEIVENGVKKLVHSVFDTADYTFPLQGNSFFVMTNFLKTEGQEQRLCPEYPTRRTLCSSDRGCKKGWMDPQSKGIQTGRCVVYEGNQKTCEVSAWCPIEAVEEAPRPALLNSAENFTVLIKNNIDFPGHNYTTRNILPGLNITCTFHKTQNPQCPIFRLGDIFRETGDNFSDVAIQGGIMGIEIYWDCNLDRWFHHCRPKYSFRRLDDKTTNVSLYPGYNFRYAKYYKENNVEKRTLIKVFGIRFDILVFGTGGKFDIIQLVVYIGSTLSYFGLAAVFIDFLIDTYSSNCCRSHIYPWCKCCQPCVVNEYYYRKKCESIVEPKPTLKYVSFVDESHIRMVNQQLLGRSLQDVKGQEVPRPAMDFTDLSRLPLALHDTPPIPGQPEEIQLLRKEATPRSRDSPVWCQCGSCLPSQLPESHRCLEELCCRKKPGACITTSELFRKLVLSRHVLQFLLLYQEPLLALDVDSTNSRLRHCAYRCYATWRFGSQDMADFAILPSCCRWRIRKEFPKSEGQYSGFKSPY
As to the kind of experiment: IL-1β release assay in differentiated THP-1 cells stimulated with BzATP (Example 9). Type of assay: cell-based. To be noted: 0.1 μM compound (symbols *); differentiated THP-1 cells, BzATP 250 uM; read-out: IL-1β % Inhib. @ 0.3 or 0.1 uM. As for the experimental part:
THP-1 cells (ATCC Cat #285-IF-100) are plated in 96 well plates at a concentration of 200,000 cells per well and allowed to differentiate in RPMI-1640 media (ATCC Cat #30-2001) containing 10% FBS, 100 IU/mL penicillin, 100 ug/mL streptomycin, 100 ng/mL LPS and 100 ng/mL IFN-γ for 16 hours. Following differentiation, the cells are treated for an additional 2 hours in RPMI-1640 media containing 100 IU/mL penicillin, 100 ug/mL streptomycin and fresh LPS at 100 ng/mL. The cells are then pretreated for 30 minutes with the compound of interest at the appropriate concentration in RPMI media containing 100 IU/mL penicillin, 100 ug/mL streptomycin. Following the pretreatment 2′,3′-O-(4-benzoylbenzoyl)-adenosine 5′-triphosphate (Sigma Aldrich Cat #B6396) is added to a final concentration of 250 uM and the cells are incubated for an additional 45 minutes. 30 uL of cell supernatant is then collected and IL-1β levels determined via ELISA (R&D systems Cat. #HSLB50) according to manufacturer's recommendations using the Tecan Safire plate reader. Background adjusted IL-1β levels of drug treated and non-treated cells are used to calculate the percent inhibition.
The compounds set forth in Table 1 were tested for activity in a cellular model as described herein. Specifically, cells were pretreated with differing amounts of the compound under test and released IL-1β determined as in Example 9, above. Measurements were made and IC50 values, presented in Table 2, below, were determined by fitting the data to a four parameter logistic equation using GraphPad Prism software (GraphPad Software, Inc). The equation may be expressed by the following formula:
Y=Bottom+(Top−Bottom)/(1+10̂((Log EC50−X)*HillSlope))
Where X is the logarithm of concentration, Y is the response and Y starts at Bottom and goes to Top with a sigmoid shape.
In the case of `CCOc1cccc(C(=O)Nc2cccc3c(=O)n(CC(C)O)ccc23)c1` (stereo not shown) [Compound 132], the inhibition at 0.1 µM was in the range of 0 to 25%.
Then `CC(O)Cn1ccc2c(NC(=O)CCc3ccccc3Cl)cccc2c1=O` (stereo not shown) [Compound 133], with 26 to 50%; and `CC(O)Cn1ccc2c(NC(=O)CCc3ccc4c(c3)OCO4)cccc2c1=O` (stereo not shown) [Compound 134], with 0 to 25%; and `Cc1cc(C(=O)Nc2cccc3c(=O)n(CC(C)O)ccc23)ccc1Cl` (stereo not shown) [Compound 135], with 0 to 25%.
Regarding `CC(O)Cn1ccc2c(NC(=O)c3ccccc3Cl)cccc2c1=O` (stereo not shown) [Compound 136], the inhibition at 0.1 µM was 0 to 25%.
Then `CC(O)Cn1ccc2c(NC(=O)c3ccc(Cl)cc3Cl)cccc2c1=O` (stereo not shown) [Compound 137], with 0 to 25%; and `CC(O)Cn1ccc2c(NC(=O)c3cc(Cl)ccc3Cl)cccc2c1=O` (stereo not shown) [Compound 138], with 0 to 25%.
Regarding `Cc1ccccc1C(=O)Nc1cccc2c(=O)n(CC(C)O)ccc12` (stereo not shown) [Compound 139], the inhibition at 0.1 µM lay in the range of 26 to 50%.
On to `Cc1cccc(C(=O)Nc2cccc3c(=O)n(CC(C)O)ccc23)c1C` (stereo not shown) [Compound 140], for which the inhibition at 0.1 µM was 0 to 25%.
As for `Cc1ccc(C(=O)Nc2cccc3c(=O)n(CC(C)O)ccc23)c(C)c1` (stereo not shown) [Compound 141], the inhibition at 0.1 µM was 0 to 25%.
Turning to `Cc1ccc(C)c(C(=O)Nc2cccc3c(=O)n(CC(C)O)ccc23)c1` (stereo not shown) [Compound 142], the inhibition at 0.1 µM was in the range of 0 to 25%.
Regarding `COc1cc(OC)cc(C(=O)Nc2cccc3c(=O)n(CC(C)O)ccc23)c1` (stereo not shown) [Compound 143], the inhibition at 0.1 µM fell in the range of 0 to 25%.
In the case of `Cc1cccc(C(=O)Nc2cccc3c(=O)n(CC(C)O)ccc23)c1` (stereo not shown) [Compound 144], the inhibition at 0.1 µM fell in the range of 0 to 25%.
As for `CCOc1ccc(C(=O)Nc2cccc3c(=O)n(CC(C)O)ccc23)cc1` (stereo not shown) [Compound 145], the figure is 0 to 25%.
On to `CC(O)Cn1ccc2c(NC(=O)c3ccc(-c4ccccc4)cc3)cccc2c1=O` (stereo not shown) [Compound 146], for which the inhibition at 0.1 µM lay in the range of 0 to 25%.
On to `CC(O)Cn1ccc2c(NC(=O)c3ccc(C(C)(C)C)cc3)cccc2c1=O` (stereo not shown) [Compound 147], for which the inhibition at 0.1 µM lay within 0 to 25%.
In the case of `CC(O)Cn1ccc2c(NC(=O)C(C)c3ccccc3)cccc2c1=O` (stereo not shown) [Compound 148], the inhibition at 0.1 µM was 0 to 25%.
Then `COc1ccccc1CCC(=O)Nc1cccc2c(=O)n(CC(C)O)ccc12` (stereo not shown) [Compound 149], with 0 to 25%; and `COc1ccc(CCC(=O)Nc2cccc3c(=O)n(CC(C)O)ccc23)cc1` (stereo not shown) [Compound 150], with 26 to 50%.
As for `CC(O)Cn1ccc2c(NC(=O)Cc3cccc4ccccc34)cccc2c1=O` (stereo not shown) [Compound 151], the figure is 0 to 25%; as for `CC(O)Cn1ccc2c(NC(=O)c3ccc4ccccc4c3)cccc2c1=O` (stereo not shown) [Compound 152], 0 to 25%.
On to `CC(O)Cn1ccc2c(NC(=O)Cc3ccccc3F)cccc2c1=O` (stereo not shown) [Compound 153], for which the inhibition at 0.1 µM lay in the range of 0 to 25%.
`CC(O)Cn1ccc2c(NC(=O)Cc3ccccc3Cl)cccc2c1=O` (stereo not shown) [Compound 154]: the inhibition at 0.1 µM lay in the range of 0 to 25%.
Turning to `COc1ccccc1CC(=O)Nc1cccc2c(=O)n(CC(C)O)ccc12` (stereo not shown) [Compound 155], the inhibition at 0.1 µM was 0 to 25%.
As for `COc1ccc(OC)c(CC(=O)Nc2cccc3c(=O)n(CC(C)O)ccc23)c1` (stereo not shown) [Compound 156], the inhibition at 0.1 µM fell in the range of 26 to 50%.
As for `Cc1ccccc1CC(=O)Nc1cccc2c(=O)n(CC(C)O)ccc12` (stereo not shown) [Compound 157], the figure is 0 to 25%; as for `COc1cccc(CC(=O)Nc2cccc3c(=O)n(CC(C)O)ccc23)c1` (stereo not shown) [Compound 158], 0 to 25%; as for `Cc1cccc(CC(=O)Nc2cccc3c(=O)n(CC(C)O)ccc23)c1` (stereo not shown) [Compound 159], 0 to 25%.
For the molecule `COc1ccc(CC(=O)Nc2cccc3c(=O)n(CC(C)O)ccc23)cc1` (stereo not shown) [Compound 160], the inhibition at 0.1 µM fell in the range of 0 to 25%.
As to `CCOc1ccc(CC(=O)Nc2cccc3c(=O)n(CC(C)O)ccc23)cc1` (stereo not shown) [Compound 161], the inhibition at 0.1 µM lay within 0 to 25%.
Take `Cc1ccc(CC(=O)Nc2cccc3c(=O)n(CC(C)O)ccc23)cc1` (stereo not shown) [Compound 162]: the inhibition at 0.1 µM fell in the range of 0 to 25%.
As to `CC(O)Cn1ccc2c(NC(=O)CCCc3ccccc3)cccc2c1=O` (stereo not shown) [Compound 163], the inhibition at 0.1 µM is 0 to 25%.
`CC(O)Cn1ccc2c(NC(=O)c3cc4ccccc4o3)cccc2c1=O` (stereo not shown) [Compound 164]: the inhibition at 0.1 µM is 0 to 25%.
In the case of `CC(O)Cn1ccc2c(NC(=O)Cc3ccc4c(c3)OCO4)cccc2c1=O` (stereo not shown) [Compound 165], the inhibition at 0.1 µM was in the range of 0 to 25%.
For the molecule `COc1cc(CC(=O)Nc2cccc3c(=O)n(CC(C)O)ccc23)cc(OC)c1` (stereo not shown) [Compound 166], the inhibition at 0.1 µM was in the range of 0 to 25%.
As to `COc1c(C)cc(C(=O)Nc2cccc3c(=O)n(CC(C)O)ccc23)cc1C` (stereo not shown) [Compound 167], the inhibition at 0.1 µM is 0 to 25%.
Turning to `Cc1ccc(C(=O)Nc2cccc3c(=O)n(CC(C)O)ccc23)cc1Cl` (stereo not shown) [Compound 168], the inhibition at 0.1 µM lay in the range of 0 to 25%.
Turning to `Cc1cc(Cl)ccc1C(=O)Nc1cccc2c(=O)n(CC(C)O)ccc12` (stereo not shown) [Compound 169], the inhibition at 0.1 µM lay within 0 to 25%.
Then `CC(O)Cn1ccc2c(NC(=O)c3cccc4c3OCCO4)cccc2c1=O` (stereo not shown) [Compound 170], with 26 to 50%.
Consider `CC(O)Cn1ccc2c(NC(=O)c3ccc4c(c3)OCCCO4)cccc2c1=O` (stereo not shown) [Compound 171], for which the inhibition at 0.1 µM was 0 to 25%.
Consider `Cc1c(Cl)cccc1C(=O)Nc1cccc2c(=O)n(CC(C)O)ccc12` (stereo not shown) [Compound 172], for which the inhibition at 0.1 µM was 51 to 75%.
With `Cc1cc(C)cc(CC(=O)Nc2cccc3c(=O)n(CC(C)O)ccc23)c1` (stereo not shown) [Compound 173], the inhibition at 0.1 µM lay within 26 to 50%.
As for `COc1ccc(CC(=O)Nc2cccc3c(=O)n(CC(C)O)ccc23)c(OC)c1` (stereo not shown) [Compound 174], the inhibition at 0.1 µM fell in the range of 0 to 25%.
With `Cc1cc(C(=O)Nc2cccc3c(=O)n(CC(C)O)ccc23)ccc1F` (stereo not shown) [Compound 175], the inhibition at 0.1 µM was 0 to 25%.
As for `CCOc1ccccc1CC(=O)Nc1cccc2c(=O)n(CC(C)O)ccc12` (stereo not shown) [Compound 176], the figure is 0 to 25%; as for `COc1ccc(CC(=O)Nc2cccc3c(=O)n(CC(C)O)ccc23)cc1C` (stereo not shown) [Compound 177], 0 to 25%.
As for `Cc1ccc(Cl)c(C(=O)Nc2cccc3c(=O)n(CC(C)O)ccc23)c1` (stereo not shown) [Compound 178], the figure is 0 to 25%.
In the case of `Cc1ccc(Cl)cc1C(=O)Nc1cccc2c(=O)n(CC(C)O)ccc12` (stereo not shown) [Compound 179], the inhibition at 0.1 µM was in the range of 0 to 25%.
Then `Cc1cccc(CCC(=O)Nc2cccc3c(=O)n(CC(C)O)ccc23)c1` (stereo not shown) [Compound 180], with 0 to 25%; and `CC(O)Cn1ccc2c(NC(=O)c3cc4cc(Cl)ccc4o3)cccc2c1=O` (stereo not shown) [Compound 181], with 0 to 25%.
For the molecule `Cc1cccc(C(=O)Nc2cccc3c(=O)n(CC(C)O)ccc23)c1Cl` (stereo not shown) [Compound 182], the inhibition at 0.1 µM lay in the range of 0 to 25%.
For the molecule `COc1ccc(C(=O)Nc2cccc3c(=O)n(CC(C)O)ccc23)cc1C` (stereo not shown) [Compound 183], the inhibition at 0.1 µM was in the range of 26 to 50%.
As for `Cc1ccc(CCC(=O)Nc2cccc3c(=O)n(CC(C)O)ccc23)c(C)c1` (stereo not shown) [Compound 184], the inhibition at 0.1 µM was 0 to 25%.
As to `CCOc1ccc(C(=O)Nc2cccc3c(=O)n(CC(C)(C)O)ccc23)c(O)c1` [Compound 185], the inhibition at 0.1 µM lay in the range of 0 to 25%.
For `COc1ccc(C(=O)Nc2cccc3c(=O)n(CC(C)(C)O)ccc23)c(C)c1` [Compound 186], the inhibition at 0.1 µM was 0 to 25%.
For the molecule `Cc1ccccc1CCC(=O)Nc1cccc2c(=O)n(CC(C)(C)O)ccc12` [Compound 187], the inhibition at 0.1 µM lay within 0 to 25%.
For `CC(C)(O)Cn1ccc2c(NC(=O)c3ccc(-c4ccccc4)o3)cccc2c1=O` [Compound 188], the inhibition at 0.1 µM was 0 to 25%.
With `COc1cccc(CCC(=O)Nc2cccc3c(=O)n(CC(C)(C)O)ccc23)c1` [Compound 189], the inhibition at 0.1 µM was 0 to 25%.
